PubChem BioAssay AID1745844 (Carcinogenic Potency Database (CPDB), 2022)
Calls of active or inactive are those of the source. No rule for the calls is given here.

Test system: rodent lifetime carcinogenesis bioassay, tumor incidence TD50
Assay: carcinogenic potency in animals, long-term in vivo studies, CPDB compilation (AID 1745844)

CN(C)Nc1nc(-c2ccc([N+](=O)[O-])o2)cs1
TD50 (rat, strain Sprague-Dawley, females, in feed, site: all sites, lesion: lymphoblastic lymphoma, dosed 46 weeks, study length 66 weeks): 16.3 mg/kg/day
TD50 (rat, strain Sprague-Dawley, females, in feed, site: mammary gland, lesion: adenocarcinoma, dosed 46 weeks, study length 66 weeks): 0.391 mg/kg/day
carcinogen call (rat, strain Sprague-Dawley, females, in feed, site: mammary gland, lesion: several types, types named in the paper, dosed 46 weeks, study length 66 weeks): positive

CN(N=O)c1ccccc1
TD50 (rat, strain Chester Beatty albino, females, in drinking water, site: esophagus, lesion: benign tumor, dosed 67 weeks, study length 67 weeks): 32 mg/kg/day
carcinogen call (rat, strain Chester Beatty albino, females, in drinking water, site: esophagus, lesion: several types, types named in the paper, dosed 67 weeks, study length 67 weeks): positive
TD50 (rat, strain Chester Beatty albino, females, in drinking water, site: esophagus, lesion: squamous-cell carcinoma, dosed 67 weeks, study length 67 weeks): 26.4 mg/kg/day
carcinogen call (rat, strain Chester Beatty albino, females, in drinking water, site: liver, lesion: one or several types, types not named, dosed 67 weeks, study length 67 weeks): negative (inactive)
TD50 (rat, strain Chester Beatty albino, males, in drinking water, site: esophagus, lesion: benign tumor, dosed 60 weeks, study length 60 weeks): 70.4 mg/kg/day
TD50 (rat, strain Chester Beatty albino, males, in drinking water, site: esophagus, lesion: several types, types named in the paper, dosed 60 weeks, study length 60 weeks): 5.27 mg/kg/day
TD50 (rat, strain Chester Beatty albino, males, in drinking water, site: esophagus, lesion: squamous-cell carcinoma, dosed 60 weeks, study length 60 weeks): 10.5 mg/kg/day
carcinogen call (rat, strain Chester Beatty albino, males, in drinking water, site: liver, lesion: one or several types, types not named, dosed 60 weeks, study length 60 weeks): negative (inactive)
TD50 (rat, strain Fischer 344, females, in drinking water, site: esophagus, lesion: carcinoma, dosed 50 weeks, study length 114 weeks): 0.458 mg/kg/day
TD50 (rat, strain Fischer 344, males, in drinking water, site: esophagus, lesion: several types, types named in the paper, dosed 50 weeks, study length 114 weeks): 0.272 mg/kg/day
TD50 (rat, strain Sprague-Dawley, both sexes, in drinking water, site: esophagus, lesion: several types, types named in the paper, dosed 104 weeks, study length 104 weeks): 0.0343 mg/kg/day

CC(N)=S
TD50 (mouse, strain ICR, males, in feed, site: liver, lesion: hepatocellular carcinoma, dosed 40 weeks, study length 88 weeks): 15.3 mg/kg/day
TD50 (mouse, strain ICR, males, in feed, site: liver, lesion: hyperplastic nodule, dosed 40 weeks, study length 88 weeks): 12 mg/kg/day
TD50 (mouse, strain Swiss, females, in feed, site: liver, lesion: hepatoma, dosed 65 weeks, study length 65 weeks): 5.36 mg/kg/day
carcinogen call (mouse, strain Swiss, males, in feed, site: liver, lesion: hepatoma, dosed 65 weeks, study length 65 weeks): positive
TD50 (rat, strain Donryu, males, in feed, site: liver, lesion: hepatocellular carcinoma, trabecular, dosed 40 weeks, study length 80 weeks): 21.8 mg/kg/day
TD50 (rat, strain Donryu, males, in feed, site: liver, lesion: papillary adenocarcinoma, dosed 40 weeks, study length 80 weeks): 27.6 mg/kg/day
TD50 (rat, strain Donryu, males, in feed, site: liver, lesion: several types, types named in the paper, dosed 40 weeks, study length 80 weeks): 11.5 mg/kg/day

O=CCC=O
TD50 (mouse, strain B6C3F1, females, by gavage, site: any site (literature study), lesion: several types, types named in the paper, dosed 103 weeks, study length 104 weeks): 274 mg/kg/day (inactive)
TD50 (mouse, strain B6C3F1, females, by gavage, site: liver, lesion: hepatocellular adenoma + hepatocellular carcinoma + neoplastic nodule, dosed 103 weeks, study length 104 weeks): 568 mg/kg/day
TD50 (mouse, strain B6C3F1, females, by gavage, site: lung, lesion: alveolar/bronchiolar adenoma + alveolar/bronchiolar carcinoma, dosed 103 weeks, study length 104 weeks): 4410 mg/kg/day
TD50 (mouse, strain B6C3F1, males, by gavage, site: any site (literature study), lesion: several types, types named in the paper, dosed 103 weeks, study length 104 weeks): 217 mg/kg/day (inactive)
TD50 (mouse, strain B6C3F1, males, by gavage, site: liver, lesion: hepatocellular adenoma + hepatocellular carcinoma + neoplastic nodule, dosed 103 weeks, study length 104 weeks): 230 mg/kg/day
TD50 (mouse, strain B6C3F1, males, by gavage, site: lung, lesion: alveolar/bronchiolar adenoma + alveolar/bronchiolar carcinoma, dosed 103 weeks, study length 104 weeks): 1130 mg/kg/day
TD50 (mouse, strain Swiss, females, in drinking water, site: liver, lesion: hemangioma, dosed 52 weeks, study length 52 weeks): 24.8 mg/kg/day
TD50 (mouse, strain Swiss, females, in drinking water, site: liver, lesion: hepatoma, dosed 52 weeks, study length 52 weeks): 4.62 mg/kg/day
TD50 (mouse, strain Swiss, females, in drinking water, site: liver, lesion: hyperplastic nodule, dosed 52 weeks, study length 52 weeks): 44.3 mg/kg/day
TD50 (mouse, strain Swiss, females, in drinking water, site: liver, lesion: several types, types named in the paper, dosed 52 weeks, study length 52 weeks): 14.1 mg/kg/day
carcinogen call (mouse, strain Swiss, females, in drinking water, site: lung, lesion: adenoma, dosed 52 weeks, study length 52 weeks): negative (inactive)
TD50 (rat, strain Fischer 344, females, by gavage, site: any site (literature study), lesion: several types, types named in the paper, dosed 103 weeks, study length 104 weeks): 164 mg/kg/day
TD50 (rat, strain Fischer 344, females, by gavage, site: liver, lesion: hepatocellular adenoma + hepatocellular carcinoma + neoplastic nodule, dosed 103 weeks, study length 104 weeks): 1950 mg/kg/day
TD50 (rat, strain Fischer 344, females, by gavage, site: thyroid gland, lesion: follicular-cell adenoma + follicular-cell carcinoma, dosed 103 weeks, study length 104 weeks): 252 mg/kg/day
TD50 (rat, strain Fischer 344, males, by gavage, site: adrenal gland, lesion: cortical adenoma, dosed 103 weeks, study length 104 weeks): 566 mg/kg/day
TD50 (rat, strain Fischer 344, males, by gavage, site: adrenal medulla, lesion: pheochromocytoma, dosed 103 weeks, study length 104 weeks): 184 mg/kg/day
TD50 (rat, strain Fischer 344, males, by gavage, site: any site (literature study), lesion: several types, types named in the paper, dosed 103 weeks, study length 104 weeks): 41.8 mg/kg/day
TD50 (rat, strain Fischer 344, males, by gavage, site: liver, lesion: hepatocellular adenoma + hepatocellular carcinoma + neoplastic nodule, dosed 103 weeks, study length 104 weeks): 665 mg/kg/day
TD50 (rat, strain Fischer 344, males, by gavage, site: pancreatic islets + thyroid gland, lesion: islet-cell adenoma + follicular-cell adenoma + follicular-cell carcinoma, dosed 103 weeks, study length 104 weeks): 67.7 mg/kg/day
TD50 (rat, strain Fischer 344, males, by gavage, site: pancreatic islets, lesion: islet-cell adenoma + islet-cell carcinoma, dosed 103 weeks, study length 104 weeks): 90.3 mg/kg/day
TD50 (rat, strain Fischer 344, males, by gavage, site: pancreatic islets, lesion: islet-cell adenoma, dosed 103 weeks, study length 104 weeks): 80.5 mg/kg/day
TD50 (rat, strain Fischer 344, males, by gavage, site: subcutaneous tissue, lesion: fibrosarcoma + fibroma, dosed 103 weeks, study length 104 weeks): 195 mg/kg/day
TD50 (rat, strain Fischer 344, males, by gavage, site: testis, lesion: interstitial-cell tumor, dosed 103 weeks, study length 104 weeks): 39.8 mg/kg/day
TD50 (rat, strain Fischer 344, males, by gavage, site: thyroid gland, lesion: follicular-cell adenoma + follicular-cell carcinoma, dosed 103 weeks, study length 104 weeks): 113 mg/kg/day
TD50 (rat, strain Fischer 344, males, by gavage, site: thyroid gland, lesion: follicular-cell adenoma, dosed 103 weeks, study length 104 weeks): 206 mg/kg/day
TD50 (rat, strain Fischer 344, males, by gavage, site: thyroid gland, lesion: follicular-cell carcinoma, dosed 103 weeks, study length 104 weeks): 236 mg/kg/day
